Measurements reported in patent publication US10233188B2, “CDK2/4/6 inhibitors” (priority 2016, dated 2019).

target: CDK2/Cyclin E1 (Homo sapiens (Human), UniProt P24941); assay: biochemical; conditions: CDK2_Ki (nM), phosphorylated CDK2/Cyclin E1, 150 μM ATP, Morrison tight-binding fit
Experimental: The assay was initiated with the addition of ATP, following a fifteen minutes pre-incubation of enzyme and inhibitor at room temperature in the reaction mixture. The reaction was stopped after 45 minutes at room temperature by the addition of 50 μL of 80 mM EDTA, pH 7.5.

Row | Ki [nM] | SMILES
1 | 17.6 | C[C@]1(O)CCC[C@@H]1n1c(=O)ccc2cnc(NC3CCN(S(=O)(=O)C(F)(F)F)CC3)nc21 (single isomer, unassigned) [Example 89, (+)-8-[(1R*,2R*)-2-hydroxy-2-methylcyclopentyl]-2-({1-[(trifluoromethyl)sulfonyl]piperidin-4-yl}amino)pyrido[2,3-d]pyrimidin-7(8H)-one]
2 | 0.35 | C[C@@]1(O)CCC[C@H]1n1c(=O)ccc2cnc(NC3CCN(S(=O)(=O)NC[C@@H]4CCCO4)CC3)nc21 (single isomer, unassigned) [Example 62, (−)-4-({8-[(1R*,2R*)-2-hydroxy-2-methylcyclopentyl]-7-oxo-7,8-dihydropyrido[2,3-d]pyrimidin-2-yl}amino)-N-[(2S)-tetrahydrofuran-2-ylmethyl]piperidine-1-sulfonamide]
3 | 1.39 | CNS(=O)(=O)N1CCC(Nc2ncc3cc(C)c(=O)n([C@H]4CCC[C@]4(C)O)c3n2)CC1 (single isomer, unassigned) [Example 95, (+)-4-({8-[(1R*,2R*)-2-hydroxy-2-methylcyclopentyl]-6-methyl-7-oxo-7,8-dihydropyrido[2,3-d]pyrimidin-2-yl}amino)-N-methylpiperidine-1-sulfonamide]
4 | 42.6 | Cc1cc2cnc(NC3CCN(S(C)(=O)=O)CC3)nc2n([C@H]2CCC[C@H](O)C2)c1=O (single isomer, unassigned) [Example 33, (−)-8-[(1R*,3R*)-3-hydroxycyclohexyl]-6-methyl-2-{[1-(methylsulfonyl)piperidin-4-yl]amino}pyrido[2,3-d]pyrimidin-7(8H)-one]
5 | 95.2 | COCCc1cc2cnc(N[C@@H]3CCN(S(C)(=O)=O)C[C@H]3F)nc2n(C2CCCC2)c1=O (single isomer, unassigned) [Example 159, (+)-8-cyclopentyl-2-{[(3S*,4S*)-3-fluoro-1-(methylsulfonyl)piperidin-4-yl]amino}-6-(2-methoxyethyl)pyrido[2,3-d]pyrimidin-7(8H)-one]
6 | 2.29 | CS(=O)(=O)N1CCC(Nc2ncc3cc(CC(F)F)c(=O)n(C4CCCC4)c3n2)CC1 [Example 149, 8-cyclopentyl-6-(2,2-difluoroethyl)-2-{[1-(methylsulfonyl)piperidin-4-yl]amino}pyrido[2,3-d]pyrimidin-7(8H)-one]
7 | 0.35 | C[C@@]1(O)CCCC1n1c(=O)ccc2cnc(NC3CCN(S(=O)(=O)NC[C@H]4CCCO4)CC3)nc21 (single isomer, unassigned; (-)) [Example 64, (−)-4-({8-[(1R*,2R*)-2-hydroxy-2-methylcyclopentyl]-7-oxo-7,8-dihydropyrido[2,3-d]pyrimidin-2-yl}amino)-N-[(2R)-tetrahydrofuran-2-ylmethyl]piperidine-1-sulfonamide]
8 | 0.93 | CNS(=O)(=O)N1CCC(Nc2ncc3ccc(=O)n([C@H]4CCC[C@H]4C)c3n2)CC1 [Example 45, N-methyl-4-({8-[(1S,2R)-2-methylcyclopentyl]-7-oxo-7,8-dihydropyrido[2,3-d]pyrimidin-2-yl}amino)piperidine-1-sulfonamide]
9 | 0.57 | C[C@@H]1[C@H](O)CC[C@H]1n1c(=O)c(CC(F)F)cc2cnc(NC3CCN(S(C)(=O)=O)CC3)nc21 (single isomer, unassigned) [Example 206, (−)-6-(2,2-difluoroethyl)-8-[(1R*,2S*,3R*)-3-hydroxy-2-methylcyclopentyl]-2-{[1-(methylsulfonyl)piperidin-4-yl]amino}pyrido[2,3-d]pyrimidin-7(8H)-one]
10 | 5.05 | C[C@@H]1[C@H](O)CC[C@@H]1n1c(=O)ccc2cnc(NC3CCN(S(C)(=O)=O)CC3)nc21 (single isomer, unassigned) [Example 207, (+)-8-[(1R*,2R*,3S*)-3-hydroxy-2-methylcyclopentyl]-2-{[1-(methylsulfonyl)piperidin-4-yl]amino}pyrido[2,3-d]pyrimidin-7(8H)-one]
11 | 9.04 | CC(=O)c1c(C)c2cnc(NC3CCN(S(C)(=O)=O)CC3)nc2n([C@H]2CCC[C@]2(C)O)c1=O (single isomer, unassigned) [Example 178, (+)-6-acetyl-8-[(1R*,2R*)-2-hydroxy-2-methylcyclopentyl]-5-methyl-2-{[1-(methylsulfonyl)piperidin-4-yl]amino}pyrido[2,3-d]pyrimidin-7(8H)-one]
12 | 4.85 | C[C@]1(O)CCC[C@@H]1n1c(=O)ccc2cnc(NC3CCN(S(=O)(=O)NC[C@H]4CCCO4)CC3)nc21 (single isomer, unassigned) [Example 65, (+)-4-({8-[(1R*,2R*)-2-hydroxy-2-methylcyclopentyl]-7-oxo-7,8-dihydropyrido[2,3-d]pyrimidin-2-yl}amino)-N-[(2R)-tetrahydrofuran-2-ylmethyl]piperidine-1-sulfonamide]
13 | 4.51 | C[C@]1(O)CCC[C@@H]1n1c(=O)ccc2cnc(NC3CCN(S(=O)(=O)NC[C@@H]4CCCO4)CC3)nc21 (single isomer, unassigned) [Example 63, (+)-4-({8-[(1R*,2R*)-2-hydroxy-2-methylcyclopentyl]-7-oxo-7,8-dihydropyrido[2,3-d]pyrimidin-2-yl}amino)-N-[(2S)-tetrahydrofuran-2-ylmethyl]piperidine-1-sulfonamide]
14 | 5.21 | CNS(=O)(=O)N1CCC(Nc2ncc3ccc(=O)n([C@H]4CCC[C@]4(C)O)c3n2)CC1 (single isomer, unassigned) [Example 57, (+)-4-({8-[(1R*,2R*)-2-hydroxy-2-methylcyclopentyl]-7-oxo-7,8-dihydropyrido[2,3-d]pyrimidin-2-yl}amino)-N-methylpiperidine-1-sulfonamide]
15 | 135 | CS(=O)(=O)N1CC[C@@H](Nc2ncc3cc(CC(N)=O)c(=O)n(C4CCCC4)c3n2)[C@H](F)C1 (single isomer, unassigned) [Example 161, (+)-2-(8-cyclopentyl-2-{[(3S*,4S*)-3-fluoro-1-(methylsulfonyl)piperidin-4-yl]amino}-7-oxo-7,8-dihydropyrido[2,3-d]pyrimidin-6-yl)acetamide]
16 | 4.66 | CNS(=O)(=O)N1CCC(Nc2ncc3cc(C)c(=O)n([C@@H]4CCC[C@H]4O)c3n2)CC1 [Example 55, 4-({8-[(1R,2R)-2-hydroxycyclopentyl]-6-methyl-7-oxo-7,8-dihydropyrido[2,3-d]pyrimidin-2-yl}amino)-N-methylpiperidine-1-sulfonamide]
17 | 3.59 | Cc1cc2cnc(NC3CCN(S(=O)(=O)NC[C@@H]4CCCO4)CC3)nc2n([C@H]2CCC[C@]2(C)O)c1=O (single isomer, unassigned) [Example 101, (+)-4-({8-[(1R*,2R*)-2-hydroxy-2-methylcyclopentyl]-6-methyl-7-oxo-7,8-dihydropyrido[2,3-d]pyrimidin-2-yl}amino)-N-[(2S)-tetrahydrofuran-2-ylmethyl]piperidine-1-sulfonamide]
18 | 1.44 | CS(=O)(=O)N1CCC(Nc2ncc3ccc(=O)n([C@@H]4CC[C@@H](O)C4)c3n2)CC1 (single isomer, unassigned) [Example 54, (−)-8-[(1R*,3R*)-3-hydroxycyclopentyl]-2-{[1-(methylsulfonyl)piperidin-4-yl]amino}pyrido[2,3-d]pyrimidin-7(8H)-one]
19 | 1.12 | CN(C)S(=O)(=O)N1CCC(Nc2ncc3ccc(=O)n(C4CCCC4)c3n2)CC1 [Example 12, 4-[(8-cyclopentyl-7-oxo-7,8-dihydropyrido[2,3-d]pyrimidin-2-yl)amino]-N,N-dimethylpiperidine-1-sulfonamide]
20 | 0.24 | Cc1cc2cnc(NC3CCN(S(=O)(=O)NC[C@H]4CCCO4)CC3)nc2n([C@@H]2CCC[C@@]2(C)O)c1=O (single isomer, unassigned) [Example 102, (−)-4-({8-[(1R*,2R*)-2-hydroxy-2-methylcyclopentyl]-6-methyl-7-oxo-7,8-dihydropyrido[2,3-d]pyrimidin-2-yl}amino)-N-[(2H)-tetrahydrofuran-2-ylmethyl]piperidine-1-sulfonamide]
21 | 1.28 | C[C@@H]1CCC[C@@H]1n1c(=O)c(Cl)cc2cnc(NC3CCN(S(C)(=O)=O)CC3)nc21 [Example 39, 6-chloro-8-[(1S,2R)-2-methylcyclopentyl]-2-{[1-(methylsulfonyl)piperidin-4-yl]amino}pyrido[2,3-d]pyrimidin-7(8H)-one]
22 | 0.25 | C[C@@]1(O)CCC[C@H]1n1c(=O)ccc2cnc(NC3CCN(S(=O)(=O)C4CCS(=O)(=O)C4)CC3)nc21 (single isomer, unassigned; isomer b) [Example 71]
23 | 63.2 | CC1(C)CC(Nc2ncc3cc(CCO)c(=O)n(C4CCCC4)c3n2)CCN1S(C)(=O)=O (single isomer, unassigned; (-)) [Example 163, (−)-8-cyclopentyl-2-{[2,2-dimethyl-1-(methylsulfonyl)piperidin-4-yl]amino}-6-(2-hydroxyethyl)pyrido[2,3-d]pyrimidin-7(8H)-one]
24 | 2.5 | O=c1ccc2cnc(NC3CCN(S(=O)(=O)C(F)F)CC3)nc2n1C1CCCC1 [Example 14, 8-cyclopentyl-2-({1-[(difluoromethyl)sulfonyl]piperidin-4-yl}amino)pyrido[2,3-d]pyrimidin-7(8H)-one]
25 | 3.84 | Cc1cc2cnc(NC3CCN(S(=O)(=O)C(F)F)CC3)nc2n(C2CCCC2)c1=O [Example 26, 8-cyclopentyl-2-({1-[(difluoromethyl)sulfonyl]piperidin-4-yl}amino)-6-methylpyrido[2,3-d]pyrimidin-7(8H)-one]
26 | 1.48 | C[C@H]1CC[C@@H](O)C[C@@H]1n1c(=O)ccc2cnc(NC3CCN(S(C)(=O)=O)CC3)nc21 [Example 216, 8-[(1S,2S,5R)-5-hydroxy-2-methylcyclohexyl]-2-{[1-(methylsulfonyl)piperidin-4-yl]amino}pyrido[2,3-d]pyrimidin-7(8H)-one]

Row | SMILES | Ki [nM]
27 | C=CCc1cc2cnc(NC3CCN(S(C)(=O)=O)CC3)nc2n(C2CCCC2)c1=O [Example 139, 8-cyclopentyl-2-{[1-(methylsulfonyl)piperidin-4-yl]amino}-6-(prop-2-en-1-yl)pyrido[2,3-d]pyrimidin-7(8H)-one] | 4.05
28 | C=Cc1cc2cnc(NC3CCN(S(C)(=O)=O)CC3)nc2n(C2CCCC2)c1=O [Example 138, 8-cyclopentyl-6-ethenyl-2-{[1-(methylsulfonyl)piperidin-4-yl]amino}pyrido[2,3-d]pyrimidin-7(8H)-one] | 0.87
